Results from US6372779B1, “Anti-inflammatory compounds” (Ortho Pharmaceutical Corporation, priority 1997, dated 2002).
Entries after “also recorded” stand apart in the source; their conditions may differ.

Key:
[1] = test system: oxazolone-induced ear swelling in CD-1 mice; experiment: mouse oxazolone-induced contact hypersensitization (MOCH), ear swelling; type: in vivo; details: for inhibition in vivo at 1 mg: topical to ear, mouse, 24 hours after oxazolone challenge, read-out: Oxazolone Ear Swelling (MOCH) % inhibition vs. Vehicle at 1 mg; for topical antiinflammatory activity in the oxazolone model (in words): mouse ear
Experimental: Several triphenylpropanamide compounds of this invention, having varying affinities for the human glucocorticoid receptor, were tested for topical antiinflammatory activity in mouse ear inflammation models. […] Compounds having receptor affinities closer to hydrocortisone were as nearly active as hydrocortisone in suppressing mouse oxazolone-induced contact hypersensitization (MOCH) and phorbol ester-induced ear edema. The in vivo studies of this example were conducted as follows.
In determining the MOCH using the compounds of this invention, albino male CD-1 mice, 7-9 weeks old were induced on the shaved abdomen with 50 μl of 3% oxazolone in acetone/corn oil (Day 0). On Day 5, a 20 μl volume of 2% oxazolone in acetone was applied to the dorsal left ear of the mouse. Compounds (made in ethanol/propylene glycol, 70:30) were applied to the left ear in 20 μl volume, one hour after oxazolone challenge. The right ear was not treated. The mice were sacrificed by carbon dioxide inhalation 24 hours after oxazolone challenge, the left and right ears were removed and a 7 mm biopsy was removed from each ear and weighed. The difference in biopsy weights between the right and left ears was calculated. Antiinflammatory effects of compounds were evident as an inhibition of the increase in ear weight.

melting point [°C] | Structure (SMILES) | inhibition in vivo at 1 mg [1] [%] | topical antiinflammatory activity in the oxazolone model (in words) [1]
140.5 to 141.2 | O=C(Cc1ccccc1Cl)NCC(c1ccccc1)C(c1ccccc1)c1ccccc1 (stereo not shown) [Compound 2] | 4 | 
168.4 to 170.9 | O=C(Cc1ccc(Cl)cc1)NCC(c1ccccc1)C(c1ccccc1)c1ccccc1 (stereo not shown) [Compound 3] |  | 
142.3 to 143.6 | Cc1ccc(CC(=O)NCC(c2ccccc2)C(c2ccccc2)c2ccccc2)cc1 (stereo not shown) [Compound 4] | 1 | 
157 to 159 | COc1ccc(CC(=O)NCC(c2ccccc2)C(c2ccccc2)c2ccccc2)cc1 (stereo not shown) [Compound 6] | 38 | 
123 to 124.5 | COc1ccc(CC(=O)NCC(c2ccccc2)C(c2ccccc2)c2ccccc2)cc1OC (stereo not shown) [Compound 7] |  | 
165.2 to 166.5 | O=C(Cc1c(Cl)cccc1Cl)NCC(c1ccccc1)C(c1ccccc1)c1ccccc1 (stereo not shown) [Compound 8] |  | 
65 to 68 | O=C(Cc1ccc(Cl)c(Cl)c1)NCC(c1ccccc1)C(c1ccccc1)c1ccccc1 (stereo not shown) [Compound 9] | 18 | 
109 to 111.5 | O=C(Cc1ccccc1C(F)(F)F)NCC(c1ccccc1)C(c1ccccc1)c1ccccc1 (stereo not shown) [Compound 10] | 19 | 
108.8 to 111.3 | O=C(Cc1cccc(C(F)(F)F)c1)NCC(c1ccccc1)C(c1ccccc1)c1ccccc1 (stereo not shown) [Compound 11] | 33 | 
119.5 to 120.3 | O=C(Cc1ccc(C(F)(F)F)cc1)NCC(c1ccccc1)C(c1ccccc1)c1ccccc1 (stereo not shown) [Compound 12] | 36 | 
178.7 to 179.8 | O=C(NCC(c1ccccc1)C(c1ccccc1)c1ccccc1)C(c1ccccc1)c1ccccc1 (stereo not shown) [Compound 13] | 10 | 
151.5 to 152.7 | O=C(Cc1ccccc1)NCC(c1ccc(Cl)cc1)C(c1ccccc1)c1ccccc1 (stereo not shown) [Compound 14] | 11 | 
 | O=C(Cc1ccccc1)NCC(c1ccccc1)C(c1ccc(F)cc1)c1ccc(F)cc1 (stereo not shown) [Compound 15] |  | moderate topical activity
127.3 to 129.4 | O=C(Cc1ccccc1Cl)NCC(c1ccccc1)C(c1ccc(F)cc1)c1ccc(F)cc1 (stereo not shown) [Compound 16] | 46 | moderate topical activity
107.4 to 109 | O=C(CCc1ccccc1)NCC(c1ccccc1)C(c1ccccc1)c1ccccc1 (stereo not shown) [Compound 19] | 2 | 
137 to 140 | COc1ccccc1CCC(=O)NCC(c1ccccc1)C(c1ccccc1)c1ccccc1 (stereo not shown) [Compound 20] | 32 | 
135 to 135.8 | O=C(CCc1ccccc1Cl)NCC(c1ccccc1)C(c1ccccc1)c1ccccc1 (stereo not shown) [Compound 22] | 15 | 
78.9 to 80.9 | COc1ccccc1CCC(=O)NCC(c1ccccc1)C(c1ccc(F)cc1)c1ccc(F)cc1 (stereo not shown) [Compound 23] | 41 | moderate topical activity
78.1 to 81 | O=C(CCCc1ccccc1)NCC(c1ccccc1)C(c1ccccc1)c1ccccc1 (stereo not shown) [Compound 24] | 21 | 
172.9 to 174.2 | O=S(=O)(Cc1ccccc1)NCC(c1ccccc1)C(c1ccccc1)c1ccccc1 (stereo not shown) [Compound 25] | 9 | 
139.7 to 142.1 | Cc1ccc(S(=O)(=O)NCC(c2ccccc2)C(c2ccccc2)c2ccccc2)cc1 (stereo not shown) [Compound 26] | -5 | 
186.9 to 187.5 | O=C(CS(=O)(=O)c1ccccc1)NCC(c1ccccc1)C(c1ccccc1)c1ccccc1 (stereo not shown) [Compound 27] | 20 | 
190.3 to 191.9 | Cc1ccc(S(=O)(=O)CC(=O)NCC(c2ccccc2)C(c2ccccc2)c2ccccc2)cc1 (stereo not shown) [Compound 28] | 28 | 
130 to 132 | O=C(Cc1cccs1)NCC(c1ccccc1)C(c1ccccc1)c1ccccc1 (stereo not shown) [Compound 29, N-(2-thiophene)acetyl-2,3,3-triphenylpropylamine] | 83 | equiactive with hydrocortisone; also recorded: inhibited ear swelling in a dose-dependent manner
183.5 to 185 | Cc1ccc(C(=O)NCC(c2ccccc2)C(c2ccccc2)c2ccccc2)s1 (stereo not shown) [Compound 30] | 21 | 
84.9 to 85.3 | O=C(Cc1cccs1)NCC(c1ccccc1)C(c1ccc(F)cc1)c1ccc(F)cc1 (stereo not shown) [Compound 31] | 14 | 
127.9 to 128.9 | Cc1ccc(CC(=O)NCC(c2ccccc2)C(c2ccc(F)cc2)c2ccc(F)cc2)s1 (stereo not shown) [Compound 32] | 83 | equiactive with hydrocortisone; also recorded: inhibited ear swelling in a dose-dependent manner

melting point [°C] | Structure (SMILES) | inhibition in vivo at 1 mg [1] [%] | topical antiinflammatory activity in the oxazolone model (in words) [1]
127 to 130 | O=C(Cc1cccs1)NCC(c1ccc(I)cc1)C(c1ccccc1)c1ccccc1 (stereo not shown) [Compound 33] | 74 | 
126.3 to 127 | O=C(Cc1cccs1)NCC(c1ccc(Cl)cc1)C(c1ccccc1)c1ccccc1 (stereo not shown) [Compound 34] | 29 | 
126.4 to 127.9 | O=C(Cc1ccsc1)NCC(c1ccc(Cl)cc1)C(c1ccccc1)c1ccccc1 (stereo not shown) [Compound 35] | 36 | 
135 to 138 | O=C(Cc1ccsc1)NCC(c1ccccc1)C(c1ccccc1)c1ccccc1 (stereo not shown) [Compound 36] | 13 | 
105.5 to 106.9 | O=C(CCCc1cccs1)NCC(c1ccccc1)C(c1ccccc1)c1ccccc1 (stereo not shown) [Compound 37] | 25 | 
217.3 to 218.9 | O=C(C=Cc1cccs1)NCC(c1ccccc1)C(c1ccccc1)c1ccccc1 (stereo not shown) [Compound 38] | 13 | 
204.8 to 206.5 | O=C(C=Cc1ccsc1)NCC(c1ccccc1)C(c1ccccc1)c1ccccc1 (stereo not shown) [Compound 39] | 24 | 
169 to 170.9 | O=S(=O)(NCC(c1ccccc1)C(c1ccccc1)c1ccccc1)c1cccs1 (stereo not shown) [Compound 40] | 15 | 
180.4 to 181.9 | O=S(=O)(NCC(c1ccc(Cl)cc1)C(c1ccccc1)c1ccccc1)c1cccs1 (stereo not shown) [Compound 41] | 3 | 
153.5 to 154.7 | O=C(NCC(c1ccccc1)C(c1ccccc1)c1ccccc1)c1ccsc1 (stereo not shown) [Compound 42] | 27 | 
218.3 to 218.8 | O=C(NCC(c1ccccc1)C(c1ccccc1)c1ccccc1)c1cc2ccccc2s1 (stereo not shown) [Compound 43] | 47 | 
107 to 109.3 | CN(CC(c1ccccc1)C(c1ccccc1)c1ccccc1)C(=O)Cc1cccs1 (stereo not shown) [Compound 44] | 3 | 
139 to 142 | O=C(NCC(c1ccccc1)C(c1ccccc1)c1ccccc1)c1cccs1 (stereo not shown) [Compound 45] | 31 | 
89 to 93 | O=C(Cc1c[nH]c2ccccc12)NCC(c1ccccc1)C(c1ccccc1)c1ccccc1 (stereo not shown) [Compound 47] | 51 | 
100 to 114 | O=C(CCc1c[nH]c2ccccc12)NCC(c1ccccc1)C(c1ccccc1)c1ccccc1 (stereo not shown) [Compound 48] | 22 | 
120.1 to 121.7 | O=C(Cc1ccccn1)NCC(c1ccccc1)C(c1ccccc1)c1ccccc1 (stereo not shown) [Compound 49] | 20 | 
210 to 211 | O=C(NCC(c1ccccc1)C(c1ccccc1)c1ccccc1)Nc1ccccc1Cl (stereo not shown) [Compound 52] |  | 
190 to 191 | O=C(NCC(c1ccccc1)C(c1ccccc1)c1ccccc1)Nc1ccccc1F (stereo not shown) [Compound 53] | 24 | 
170 to 171 | O=C(NCc1ccccc1)NCC(c1ccccc1)C(c1ccccc1)c1ccccc1 (stereo not shown) [Compound 54] | 10 | 
166 to 167 | O=C(NCc1ccc(Cl)cc1Cl)NCC(c1ccccc1)C(c1ccccc1)c1ccccc1 (stereo not shown) [Compound 55] | 18 | 
151 to 152 | O=C(NCC(c1ccccc1)C(c1ccccc1)c1ccccc1)Oc1ccc2ccccc2c1 (stereo not shown) [Compound 59] |  | 
128.7 to 130.5 | O=C(Cc1cccs1)NCC(c1ccccc1)C1c2ccccc2-c2ccccc21 (stereo not shown) [Compound 71] |  | 
172.7 to 174.6 | O=C(Cc1ccccc1)NCC(c1ccccc1)C1c2ccccc2CCc2ccccc21 (stereo not shown) [Compound 73] |  | 
150 to 152 | O=C(Cc1ccccc1)NCC1(c2ccccc2)CC1(c1ccccc1)c1ccccc1 (stereo not shown) [Compound 78] |  | 
121 to 122 | CC(C)(C)C(=O)NCC1(c2ccccc2)CC1(c1ccccc1)c1ccccc1 (stereo not shown) [Compound 86] |  | 
 | O=C(Cc1ccc(Cl)cc1)NCC(c1ccc2c(c1)OCO2)C(c1ccccc1)c1ccccc1 (stereo not shown) [Compound 98] |  | equiactive with hydrocortisone
 | C[C@]12CCC(=O)C=C1CC[C@@H]1[C@@H]2[C@@H](O)C[C@@]2(C)[C@H]1CC[C@]2(O)C(=O)CO [hydrocortisone, reference compound] | 75 to 85 | 
